# Assay results taken from patent EP0062319A1, “3-Methyl-1-(2-(3-naphthyloxy)-ethyl)-2-pyrazolin-5-one for the treatment of the metastasis and growth of tumour cells” (BAYER AG, priority 1981, dated 1982).
# Columns and labels:
# [1] = test system: Lewis-Lungen-Karzinom; assay: Spontaneous (full) metastasis of subcutaneously injected Lewis lung carcinoma (lung tumour colonies) in mice; assay type: in vivo, C57BL/6J Mäuse; settings: 0.08 mg daily s.c.
# Source text: Wie bereits weiter oben festgestellt wurde, ist die Metastase […], die durch eine Reihe komplizierter Vorgänge dargestellt wird. Gegenwärtig finden zwei "Modell"-Systeme für die Untersuchung der in vivo-Metastase verbreitete Anwendung. Das erste Modellsystem umfaßt die subkutane Injektion der Tumorzellen in das Tier. Die subkutane Injektion der Tumorzellen und anschließende Entwicklung eines Primärtumors, gefolgt von spontaner Metastase, wird als "volle" Metastase betrachtet. Ein anderes Modellsystem umfaßt die Injektion der Tumorzellen durch die Schwanzvene. In Anbetracht der Komplexität der Metastase gilt die Schwanzvenen-Injektion als künstliches und nur partielles Modellsystem, da es nur die Vorgänge während des letzteren Teils der Metastase wiedergibt. Das Schwanzvenen-Modellsystem gilt jedoch auch als außerordentlich günstig im Hinblick auf eine Standardisierung der Versuchsbedingungen [vgl."Methods in Cancer Research", Kapitel VII, Academic Press, Inc., 1978].
# Als Kontrolltiere wurden (unbehandelte) C57B1/6J-Mäuse nach folgender Arbeitsweise auf volle Metastase untersucht. Zellsuspensionen der B-16 - und 3LL-Karzinom-Zellen, die wie oben unter A und B beschrieben erhalten worden waren, wurden subkutan in die rechte Achselhöhlenregion der männlichen C57BL/6J-Mäuse injiziert (0,66 mm- = 26 gauge -Nadel; 0,2 ml). […]
# [2] = test system: Lewis-Lungenkarzinom-Zellen; assay: DNA synthesis by 3H-thymidine uptake in Lewis lung carcinoma cells in vitro; assay type: cell-based, Mäuse; settings: 0,1, 1,0, 10 and 25 µg/ml, 4 h and 18 h, Fig. 1, relative to control = 100 %
# Source text: Die antineoplastische Wirksamkeit wurde in vitro durch Messung der DNS-Synthese sowohl von B-16a- als auch von Lewis-Lungenkarzinom-Zellen durch eine Methode gemessen, der die Thymidin-Aufnahme zugrundeliegt. Zellen, die in Vorbereitung der Zellteilung DNS synthetisieren, sind durch ihre Fähigkeit gekennzeichnet, Thymidin aufzunehmen. Demnach ist die Zell-Proliferation mit der DNS-Synthese verbunden. Wenn die Menge der durch die Tumorzellen synthetisierten DNS vermindert wird, so ist das ein Anzeichen dafür, daß die Zellteilung und damit das Tumorwachstum gehemmt worden ist.
# B-16a- und Lewis-Lungenkarzinom-Zellen wurden wie vor- stehend beschrieben erhalten. Die dispergierten Zellen wurden in sterilen 25 ml-Erlenmeyer-Kolben aus Kunststoff auf eine Konzentration von 1 x 10^5 Zellen/ml in MEM verdünnt. Tritium-markiertes Thymidin (^3H) mit einer spezifischen Aktivität von […] (50-80 Ci/mmol) wurde mit […] (2 µCi/ml) zu jedem ml der Zellsuspension hinzugefügt.
# Zu einer Reihe von Kolben, die die B-16 - und Lewis-Lungenkarzinom-Zellen enthielten, wurde die Pyrazolon-Verbindung in Mengen von 0,1 , 1,0 , 10 und 25 µg/ml des Gesamtvolumens hinzugefügt. […]
smiles,measurement,setting,value
CC1=NN(CCOc2ccc3ccccc3c2)C(=O)C1 [3-Methyl-1-[2-(2-naphthyloxy)-ethyl]-2-pyrazolin-5-on],Lungen-Tumor-Kolonien Lewis-Lungen-Zellen,"[1]; 1 x 10^5 cells s.c., killed day 21, mean ± SEM",0.8 ± 0.5
same,Lungen-Tumor-Kolonien Lewis-Lungen-Zellen (fraction in brackets),[1]; bracketed fraction,2/12
same,DNS-Synthese (3H-Thymidinaufnahme),[2],konzentrationsabhängige Abnahme der DNS-Synthese
